Test results published in US20230253066A1, “DESIGNED PROTEINS FOR LIGAND BINDING” (The Regents of the University of California, priority 2020, published 2023).

Molecular target: ABLE
Assay: Fluorescence anisotropy ligand competition on ABLE (displacement of apixaban-peg-FITC)
Type: binding
Description: We performed fluorescence anisotropy experiments (54, 55) of ABLE and LABLE using a FITC fluorophore conjugated to apixaban as the fluorescent probe (FIGS. 512A-512D and Scheme 1). We serially diluted a concentrated protein solution containing 25 nM Apx-peg-FITC, holding constant the concentration of Apx-peg-FITC. Parallel and perpendicularly polarized emission at 528 nm (10 nm slit width, 510 nm long pass filter) were integrated for 10 seconds after 485 nm (5 nm slit width) excitation of the FITC fluorophore of Apx-peg-FITC. The data were fit to a single-site binding model (Equation 2, with N=1) (FIG. S12B). We performed ligand competition experiments (54, 55) by adding aliquots of a concentrated ligand stock in DMSO into an approximately 50% bound complex of protein and Apx-peg-FITC (25 nM). The decrease in anisotropy as a function of competing ligand was fit to a competitive binding model (54, 55) (FIG. 4D and FIG. S12C and FIG. S12D). Because effects of DMSO on the anisotropy of bound ABLE/Apx-peg-FITC complex become more pronounced at high concentrations of DMSO (>4%), we fit only the initial data points at low DMSO concentration (% DMSO <2%, FIG. 4D). […] DMSO may have a minor effect on competitive binding with weaker competitors (i.e., apixabanCOO^− and rivaroxaban), where high concentrations of competitor are needed to decrease anisotropy. As such, the reported dissociation constants of these weaker competitors can be viewed as a lower limit to the KD. Fluorescence polarization competition with apixaban as competitor gives a KD of 7 (±1) μM for the apixaban/ABLE complex (FIG. 4D), which agrees with that of the more precise spectral titration [KD=5 (±1) μM]. Binding experiments were performed at least twice to confirm reproducibility, and the reported errors correspond to the uncertainty in the fit parameters.

Row | Kd (ABLE 20 μM, apixaban-peg-FITC 25 nM, 50 mM NaPi, 100 mM NaCl, pH 7.4, fit of initial points at DMSO <2%, KD of weaker competitors viewed as lower limit, read-out: KD of competing ligand for ABLE, competitive binding model) | fold tighter binding to ABLE than rivaroxaban (fluorescence polarization competition, FIG. 4D) | binding to ABLE (in words) (competition with apixaban-peg-FITC) | Structure (SMILES)
1 | 7 µM | 20 fold |  | COc1ccc(-n2nc(C(N)=O)c3c2C(=O)N(c2ccc(N4CCCCC4=O)cc2)CC3)cc1 [apixaban]
2 |  |  | only very weak binding | O=C(NC[C@H]1CN(c2ccc(N3CCOCC3=O)cc2)C(=O)O1)c1ccc(Cl)s1 [rivaroxaban]
